Source: ChEMBL document CHEMBL5247574, “Recent Progress on Bile Acid Receptor Modulators for Treatment of Metabolic Diseases” (J Med Chem, 2016)
Values after ≈ are worked out from the molar mass of the structure shown. Values belong to the compound of their own block, whether it stands above or below them.

How the values were obtained:
[1] = target: T1, G-protein coupled bile acid receptor 1 (Homo sapiens, UniProt Q8TDU6); experiment: Agonist activity at human TGR5 transfected in CHO cells assessed as increase in cAMP production; assay type: cell-based
T1 sequence (Q8TDU6 whole entry): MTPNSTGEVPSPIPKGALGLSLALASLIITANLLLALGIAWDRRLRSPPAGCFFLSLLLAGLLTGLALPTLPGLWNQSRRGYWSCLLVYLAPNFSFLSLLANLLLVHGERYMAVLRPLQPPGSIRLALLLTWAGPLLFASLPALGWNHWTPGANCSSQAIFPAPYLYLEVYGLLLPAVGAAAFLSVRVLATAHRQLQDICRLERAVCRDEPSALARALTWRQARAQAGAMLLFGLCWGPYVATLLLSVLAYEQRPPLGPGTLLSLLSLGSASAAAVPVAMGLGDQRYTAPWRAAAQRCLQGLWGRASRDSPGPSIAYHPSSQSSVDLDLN

[2] = target: T2, G-protein coupled bile acid receptor 1 (Homo sapiens) (UniProt Q8TDU6); experiment: Agonist activity at human TGR5 transfected in CHO cells assessed as increase in cAMP production at 1 uM relative to control; assay type: cell-based; conditions: filed as agonist
T2 sequence (whole entry): T1 sequence (Q8TDU6 whole entry)

[3] = target: T2, G-protein coupled bile acid receptor 1 (Homo sapiens); experiment: Agonist activity at human TGR5 transfected in human NCI-H716 cells assessed as increase in cAMP production at 10 uM relative to control; assay type: cell-based; conditions: filed as agonist
[4] = target: T2, G-protein coupled bile acid receptor 1 (Homo sapiens); experiment: Agonist activity at human TGR5 transfected in human NCI-H716 cells assessed as increase in GLP-1 secretion at 5 uM relative to control; assay type: cell-based; conditions: filed as agonist
[5] = target: T3, G-protein coupled bile acid receptor 1 (Mus musculus) (UniProt Q80SS6); experiment: In vivo agonist activity at TGR5 in mouse assessed as increase in GLP-1 secretion level at 30 mg/kg, po relative to control
T3 sequence (whole entry): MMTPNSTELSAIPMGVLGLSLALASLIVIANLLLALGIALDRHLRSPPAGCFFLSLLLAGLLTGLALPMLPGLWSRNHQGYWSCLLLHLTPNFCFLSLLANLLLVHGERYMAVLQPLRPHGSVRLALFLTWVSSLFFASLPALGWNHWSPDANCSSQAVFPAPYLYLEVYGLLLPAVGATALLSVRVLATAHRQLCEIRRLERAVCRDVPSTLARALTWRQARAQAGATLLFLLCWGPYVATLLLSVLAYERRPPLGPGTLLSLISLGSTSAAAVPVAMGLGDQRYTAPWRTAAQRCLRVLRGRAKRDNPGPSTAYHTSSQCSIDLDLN

[6] = target: T3, G-protein coupled bile acid receptor 1 (Mus musculus); experiment: In vivo agonist activity at TGR5 in mouse assessed as increase in insulin level at 30 mg/kg, po relative to control
[7] = target: T3, G-protein coupled bile acid receptor 1 (Mus musculus); experiment: In vivo agonist activity at TGR5 in mouse assessed as reduction in blood glucose level at 30 mg/kg, po relative to control; assay type: functional, organism-based; set-up: scale not given: the % may be the effect or the level left
[8] = target: T1, G-protein coupled bile acid receptor 1; experiment: Agonist activity at TGR5 in human HEK293 cells assessed as increase in cAMP production; assay type: cell-based
[9] = target: T4, G-protein coupled bile acid receptor 1 (Mus musculus, UniProt Q80SS6); experiment: Agonist activity at mouse TGR5
T4 sequence (Q80SS6 whole entry): T3 sequence (whole entry)

[10] = Clearance in human liver microsomes; assay type: ADME, Microsome
[11] = target: T1, G-protein coupled bile acid receptor 1; experiment: Agonist activity at human TGR5; conditions: read-out: EC50
[12] = Clearance in mouse liver microsomes; assay type: ADME, Microsome
[13] = Aqueous solubility of compound; assay type: physicochemical; conditions: buffer
Bile acid receptor [14] = target: T5, Bile acid receptor (Homo sapiens, UniProt Q96RI1); experiment: Antagonist activity at FXR in human HepG2 cells in presence of CDCA by luciferase reporter assay; assay type: cell-based
T5 sequence (Q96RI1 whole entry): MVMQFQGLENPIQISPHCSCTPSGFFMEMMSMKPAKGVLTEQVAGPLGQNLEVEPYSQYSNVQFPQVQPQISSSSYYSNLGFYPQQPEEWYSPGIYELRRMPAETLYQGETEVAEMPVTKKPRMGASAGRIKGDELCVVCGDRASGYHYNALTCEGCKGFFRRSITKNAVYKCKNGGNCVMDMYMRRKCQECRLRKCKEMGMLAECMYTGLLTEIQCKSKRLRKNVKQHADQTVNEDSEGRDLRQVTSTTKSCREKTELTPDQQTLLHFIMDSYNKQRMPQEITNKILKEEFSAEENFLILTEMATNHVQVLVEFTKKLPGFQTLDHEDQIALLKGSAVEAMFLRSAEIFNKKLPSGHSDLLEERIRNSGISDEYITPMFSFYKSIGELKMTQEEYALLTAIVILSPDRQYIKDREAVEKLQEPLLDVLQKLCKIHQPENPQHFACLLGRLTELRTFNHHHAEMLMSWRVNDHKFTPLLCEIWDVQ

[15] = target: T2, G-protein coupled bile acid receptor 1 (Homo sapiens); experiment: Agonist activity at human TGR5 transfected in CHO cells assessed as increase in cAMP production at 100 nM relative to control; assay type: cell-based; conditions: filed as agonist
[16] = target: T1, G-protein coupled bile acid receptor 1; experiment: Agonist activity at human TGR5 transfected in CHO-K1 cells assessed as increase in cAMP production; assay type: cell-based
Bile acid receptor [17] = target: T5, Bile acid receptor; experiment: Antagonist activity at FXR (unknown origin) by HTFR assay
[18] = target: T2, G-protein coupled bile acid receptor 1 (Homo sapiens); experiment: Agonist activity at human TGR5 expressed in human HEK293 cells at 20 uM measured after 5.5 hrs by steady-glo luciferase assay relative to control; assay type: cell-based; conditions: filed as agonist
[19] = target: T1, G-protein coupled bile acid receptor 1; experiment: Agonist activity at human TGR5 expressed in human HEK293 cells measured after 5.5 hrs by steady-glo luciferase assay; assay type: cell-based
Bile acid receptor [20] = target: T5, Bile acid receptor; experiment: Agonist activity at human GST-tagged FXR LBD (193 to 472 residues) by FRET assay
Bile acid receptor [21] = target: T5, Bile acid receptor; experiment: Agonist activity at FXR (unknown origin)
[22] = liver microsomes, read-out: CLH

Compound: Cc1ccccc1[C@H](C/C(=N/O)C1CCC(=O)N(C)C1)c1ccc(S(C)(=O)=O)cc1 (stereo partly specified)
- EC50 [1]: 0.029 µM

Compound: O=C(c1cc(C(F)(F)F)cc(C(F)(F)F)c1)N1CCOc2nccc(-c3ccccc3)c2C1
- Activity [2]: 100%

Compound: CNc1cccc([C@H]2O[C@H](CC(=O)Nc3ccccc3F)C(=O)N(CC(C)C)c3ccccc32)c1
- Activity [3]: 100%
- Activity [4]: 157%

Compound: Cc1cc(/C(C[C@H](c2ccc(C3C[C@@H]4C(C(=O)O)[C@@H]4C3)cc2)c2ccc(F)cc2F)=N\O)ccn1 (stereo partly specified)
- EC50 [1]: 0.001 µM

Compound: O=c1c2ccccc2nc(-c2ccc(F)cc2)n1NCc1ccc(Br)cc1
- Activity [5]: 70%
- Activity [6]: 130%
- Activity [7]: 52%
- EC50 [8]: < 10 µM

Compound: C=C1[C@@H](O)CC[C@]2(C)C3CC[C@@]4(C)C(=C3CC[C@@H]12)CC[C@@H]4[C@H](C)CC[C@H](CC)C(C)C (stereo partly specified)
- IC50 (Bile acid receptor [14]): 40 µM

Compound: Brc1ccc(CCNCc2cc3ccncc3nc2-c2ccsc2)cc1
- EC50 [8]: < 10 µM

Compound: O=C(c1cc(C(F)(F)F)cc(C(F)(F)F)c1)N1CCCn2cccc2C1c1ccccc1 (stereo unspecified)
- EC50 [8]: < 10 µM

Compound: Fc1ccccc1-c1ccncc1CN1C(c2ccco2)=NOC1c1cc(C(F)(F)F)cc(C(F)(F)F)c1 (stereo unspecified)
- Activity [18]: 102%
- EC50 [19]: 0.015 µM

Compound: O=C(O)c1ccc2nc(N3CCC(OCc4c([C@H]5CCCC[C@@H]5C(F)(F)F)noc4C4CC4)CC3)sc2c1 (stereo in doubt; form 2)
- EC50 (Bile acid receptor [20]): 0.245 µM

Compound: O=C(Nc1cc(Cl)ccc1-c1nc2cc(F)c(F)cc2n1CC1CCCCC1)c1ccc(-c2nnn[nH]2)cc1F
- IC50 (Bile acid receptor [21]): 0.0004 µM

Compound: CC(C)n1ncc2cc(CNCc3ccc(C(F)(F)F)cc3)c(-c3ccsc3)cc21
- EC50 [8]: < 10 µM

Compound: Fc1ccccc1-c1ccncc1CN1C(c2ccco2)=NOC1c1cc(C(F)(F)F)cc(C(F)(F)F)c1Cl (stereo unspecified)
- Activity [18]: 90%
- EC50 [19]: 0.0056 µM

Next, values leading:

- EC50 [9]: 0.35 µM
- microsomal CLint [10, 22]: 56 µL/min/mg
- EC50 [11]: 0.076 µM
- microsomal CLint [12, 22]: 56 µL/min/mg
- solubility [13]: 0.535 mg/mL (≈ 970 µM)
Compound: O=C(Nc1nnn[nH]1)c1cc(Cl)c(Oc2ncccc2C(=O)N2CCN(C3CC3)c3ccccc32)cc1Cl

- EC50 [1]: 0.006 µM
Compound: Cc1ccccc1[C@H](C/C(=N/O)c1ccc(=O)n(C)n1)c1ccc(Br)cc1

- Activity [15]: 97%
Compound: COc1ccc(C(C)(C)c2cnc(SCCOc3c(F)cccc3Cl)n2-c2ccc(F)cc2)cc1OC

- EC50 [16]: 0.024 µM
Compound: Cc1c(Cl)cccc1OCCCC(=O)N1CCC(Cc2cccc(C(=O)NCCS(=O)(=O)O)c2)c2ccccc21 (stereo unspecified)

- IC50 (Bile acid receptor [17]): 4.2 µM
Compound: O=C(O)c1ccccc1-c1ccc(Cn2ccc(OCc3c(-c4c(Cl)cccc4Cl)noc3-c3cccs3)n2)cc1

- EC50 [9]: 2.56 µM
- CLH ([10]; microsomes): 1418 mL/min/g
- CLH ([12]; microsomes): 2134 mL/min/g
- solubility [13]: < 0.001 mg/mL
Compound: O=C(c1cccnc1Oc1cc(Cl)ccc1Cl)N1CCCc2ccccc21

- EC50 [9]: 2.02 µM
Compound: O=C(c1cccnc1Oc1cccc(C(F)(F)F)c1)N1CCCc2ccccc21

- EC50 (Bile acid receptor [17]): 80 µM
Compound: CC(C)c1onc(-c2c(Cl)cccc2Cl)c1COc1ccn(-c2cccc(C(=O)O)c2)n1

- solubility [13]: 0.014 mg/mL (≈ 30.7 µM)
Compound: O=C(c1cccnc1Oc1cc(Cl)ccc1Cl)N1CCN(C2COC2)c2ccccc21

- EC50 (Bile acid receptor [20]): 0.001 µM
Compound: O=C(O)c1ccc2cc(N3C4CCC3CC(OCc3c(-c5ccccc5OC(F)(F)F)noc3C3CC3)C4)ccc2c1 (stereo unspecified)
